Assay results from patent US12409138B2, “Nanoparticles and nanogel drug compositions for treatment of age-related macular degeneration” (University of South Florida, priority 2019, dated 2025).

Columns and labels:
ARPE-19 cells [1] = test: Cytotoxicity study (MTT assay); assay type: cell-based, human; settings: 20 μM
Experimental: Cell culture. ARPE-19, a human retinal pigment epithelial cell line ([…]) cells were grown and maintained in DMEM F12 medium supplemented with 10% v/v FBS and 1% 10,000 U/ml penicillin-streptomycin antibiotics. The cell cultures were allowed to incubate at 37° C. temperature, in a humidified atmosphere with 5% CO2. Cytotoxicity study. The MTT assay was carried out to determine cytotoxicity of SM-NPs as well as in SM-NPs gel in comparison with pure drug solution, in ARPE-19, human retinal pigment epithelial cells. The cells were seeded in 200 μl of DMEM F12 supplemented with 10% FBS in a 96 well plate (Corning, N.Y.) at a seeding density of 5000 cells/well and incubated for 24 h at 37° C., 5% CO2 atmosphere to allow attachment and growth of the cells. SM drug solution and formulations with various concentrations of SM were prepared by first dissolving SM in DMSO and then diluting them with DMEM F12 medium without FBS. The cells were treated with formulations after 24 h of seeding and incubated for […]. […] Intensity of color produced after dissolution of formazan crystals was quantified by measuring optical density at 595 nm wavelength by microtiter plate reader (Spectra MAX 190, Molecular Devices, California, USA). […] Cell viability were calculated graphically from concentration vs viability curves, considering the optical density of control well as 100% viable.

[2] = system: VEGF-A secretion in ARPE-19 cells; test: VEGF inhibition using ELISA; assay type: cell-based, human
Experimental: VEGF inhibition using ELISA. Human retinal pigmented epithelium ARPE-19 cells were seeded in 24 well plate at density of 5×10^4 cells/mL and allowed to grow for 24 h in DMEM F12 medium supplemented with 10% FBS and were incubated at 37° C., 5% CO2 atmosphere till wells became confluent. After 24 h, the culture media was replaced by incomplete media which is DMEM F12 without FBS and treatment with formulation was given. […] Quantification of the VEGF secretion in the culture media was done by ELISA method using Human VEGF-A Platinum ELISA Kit following manufacturer's instructions. The protein content in the cells were estimated using Pierce BCA protein assay kit after collecting cell lysate and the by normalizing VEGF secretion to total protein. Samples were read using ELISA plate reader (Spectra MAX 190, Molecular Devices, California, USA) at 450 nm absorbance and 550 nm and difference was recorded, followed by calculating inhibition of VEGF secretion using standard curve.

ARPE-19 cells [3] = test: Wound scratch assay (cell migration, with or without VEGF165); assay type: cell-based, human; settings: 1 μM, 48 h
Experimental: Wound scratch assay. Wound healing assay was performed as per the earlier reports to analyse the inhibitory effect of SM and its formulation on VEGF165 (rhVEGF; R&D Systems) induced angiogenesis. ARPE-19 cells were seeded and allowed to grow to attain 80% confluency in 24-well plates. Carefully, wounds were made by pipette tip to take out monolayer of cells as a strip. The wounds were created typically with around 300 μm of the average size and […] variation in wound width was considered for the study. To ensure removal of partially adhered cells on the plates due to creation of the wound, they were washed with sterile PBS twice. The cell wells were then treated with at 1 μM and 10 μM concentrations of SM-NP gel formulations in DMEM F12 media without FBS. Cell migration was observed by using ZEISS inverted phase contrast microscope, (Axicom 506 mono) with Axicom MRCS-ZEN2pro software and quantified by calculating the area covered by the cells because of cell migration from the wound edges towards the center area of the wound using ImageJ software. To check the effect of presence of VEGF on the cell migration, two wells were also kept at above two concentrations and treated with VEGF simultaneously. […] The width of the wound was measured using images captured by microscope. […]

[4] = In vitro drug release study by dialysis; assay type: physicochemical
Experimental: In vitro drug release study. The in vitro drug release study for SM from nanoparticles and nanoparticles incorporated thermo-reversible gel were compared with plain drug solution and was studied at 37°±0.5° C. In short, drug solution in DMSO, SM-NPs and SM-NP Gel having equivalent quantity of SM (1 mg/ml) were placed in dialysis tubes (MWCO 10 KDa) and sealed tightly by using dialysis closures. Then, the dialysis tubes were immersed in 20 ml of PBS (pH 7.4) as a release medium comprising of 0.1% Tween 80 (v/v). Release medium was allowed to stir at 150 rpm and the 0.5 mL of samples were withdrawn at 0.25, 0.5, 1, 2, 4, 6, 12, 24, 48, 72, 96, 120, 144 and 168 h. The volumes were made up with fresh release medium after each sampling. The concentration of SM in a sample was determined by UV spectroscopy at 432 nm after dilution with methanol in ratio of 1:10. For all the formulations, in vitro release tests were carried out in triplicate and results were described as cumulative quantity of drug released at each point of time.

- Release kinetics model [4]: first order drug release
- Cumulative drug release at 1 hr ([4]; PBS pH 7.4, 0.1% Tween 80, 37° C.): 80%±2.5%
Structure (SMILES): CCN(CC)CCNC(=O)c1c(C)[nH]c(/C=C2\C(=O)Nc3ccc(F)cc32)c1C [SM solution, Sunitinib malate]
- Viability lost (ARPE-19 cells [1]; 24 h): 25%
- Viability lost (ARPE-19 cells [1]; 48 h): 30%
- VEGF secretion ([2]; 12 hr, compared to the NPs treatment): noticeably reduced
- VEGF expression levels ([2]; 48 h, 10 μM SM equivalent, control = 100%): 90%
- activity at 10 µM ([2]; Homo sapiens, ARPE-19, 12 h, 10 μM SM equivalent, control = 100%, read-out: Inhibition of VEGF levels): 56 ± 3%
- Wound recovery (ARPE-19 cells [3]): 80±1.8%
